Where two headings read alike, the source gives them in different places. Marks after values point to notes of the source that are not given here.
What was measured:
HT29 colon cells [1] = assay: Mitochondrial membrane potential, TMRE-MtMP assay; format: cell-based, human; details: treatment at GI50 concentration (FCCP positive control 20 μM)
Source text: To study the MtMP changes in treated cells, a TMRE-MtMP Assay Kit (Abcam, Cambridge, MA, USA) was used (see Supplementary Materials).
TMRE was used to stain HT29 colon cells, and treatment with the complexes and ligands was completed at each specific GI50 concentration. The MtMP changes detected are expressed as RFU. Additionally, lower RFU values correspond to a decline in mitochondrial activity. […]
dimethylthiazol-2-yl]-2,5-diphenyltetrazolium bromide) assay and absorbance was read at 540 nm. An eight-point dose response curve was produced from which the GI50 value was calculated, representing the drug concentration at which cell growth was inhibited by 50% based on the difference between the optical density values on day 0 and those at the end of drug exposure. […]
5. Mitochondrial Membrane Potential (MtMP)
In 96-well plates, 25,000 cells/mL of HT29 colon cells in DMEM were seeded. Cells were treated with a GI50 drug concentration for each complex. […]
washed with PBS and stained with 1 μM tetramethylrhodamine, ethyl ester (TMRE) and incubated for 30 min. TMRE was then removed, and cells were then re-washed with PBS (0.2% BSA), after which phenol red free media was added. The plates were directly scanned to measure fluorescence (expressed as RFU), using the Glo-Max®-Multimode […]
microplate reader (Promega Corporation, Alexandra, VIC, Australia) at an […]
For the positive control, 20 μM carbonyl cyanide 4-(trifluoromethoxy) phenylhydrazone (FCCP)) was added to the cells and incubated for 10 min. The cells were washed with PBS (0.2% BSA) and stained with TMRE (1 μM) for 30 min; this was removed and phenol red free media was added, and the final solution was scanned as mentioned above. […]

HT29 colon cells [2] = assay: ROS production, DCFDA/H2DCFDA cellular ROS assay; format: cell-based, human; details: treatment at GI50 concentration (TBHP positive control 20 μM)
Procedure: To determine the presence of ROS in treated cells, a DCFDA/H2DCFDA-cellular ROS Assay Kit (Abcam, Cambridge, MA, USA) was utilised, as previously reported. The ROS potential of platinum(II) precursors and platinum(IV) scaffolds, which were determined using the same method, were also presented in this study for comparison.
Additionally, the ROS potential of the platinum(II) precursors and platinum(IV) scaffolds was determined previously and was presented here to allow for comparison (Table 10 and Figure 13). […] Treatment with the complexes and ligands was completed at each specific GI50 concentration. […]
dimethylthiazol-2-yl]-2,5-diphenyltetrazolium bromide) assay and absorbance was read at 540 nm. An eight-point dose response curve was produced from which the GI50 value was calculated, representing the drug concentration at which cell growth was inhibited by 50% based on the difference between the optical density values on day 0 and those at the end of drug exposure.
4. Reactive Oxygen Species (ROS) Potential
A total of 25,000 cells/mL of HT29 cells in DMEM were seeded in 96-well plates. Cells were washed with 1X kit buffer, and then stained with 25 μM 2’,7’-dichlorofluorescein diacetate (DCFH-DA) and incubated for 45 min. DCFH-DA was then removed, and cells were then re-washed with 1X kit buffer, after which phenol red free media was added.
Cells were then treated with a GI50 drug concentration for each complex. The plates were directly scanned to measure fluorescence (relative fluorescence units (RFU)) at different time points using the Glo-Max®-Multimode microplate reader (Promega Corporation, Alexandra, VIC, Australia) at an excitation/emission of 485/535 nm. […]

HT29 colon = system: HT29 colon; set-up: method as in PMID 36296713, PMID 36142383; details: cited from earlier work
U87 glioblastoma = system: U87 glioblastoma; set-up: method as in PMID 36296713, PMID 36142383; details: cited from earlier work
MCF7 breast = system: MCF7 breast; set-up: method as in PMID 36296713, PMID 36142383; details: cited from earlier work
A2780 ovarian = system: A2780 ovarian; set-up: method as in PMID 36296713, PMID 36142383; details: cited from earlier work
H460 lung = system: H460 lung; set-up: method as in PMID 36296713, PMID 36142383; details: cited from earlier work
A431 skin = system: A431 skin; set-up: method as in PMID 36296713, PMID 36142383; details: cited from earlier work
Du145 prostate = system: Du145 prostate; set-up: method as in PMID 36296713, PMID 36142383; details: cited from earlier work
BE2C neuroblastoma = system: BE2C neuroblastoma; set-up: method as in PMID 36296713, PMID 36142383; details: cited from earlier work
SJG2 glioblastoma = system: SJG2 glioblastoma; set-up: method as in PMID 36296713, PMID 36142383; details: cited from earlier work
MIA pancreas = system: MIA pancreas; set-up: method as in PMID 36296713, PMID 36142383; details: cited from earlier work
[3] = system: non-tumour derived MCF10A breast line; set-up: method as in PMID 36296713, PMID 36142383; details: cited from earlier work
[4] = system: ADDP ovarian variant (cisplatin-resistant A2780 clone); set-up: method as in PMID 36296713, PMID 36142383; details: cited from earlier work
multiple cell lines = system: multiple cell lines; set-up: method as in PMID 36296713, PMID 36142383; details: mean over all cell lines tested; cited from earlier work
MCF10A / Du145 = system: MCF10A / Du145; set-up: method as in PMID 36296713, PMID 36142383; details: GI50 in MCF10A/GI50 in Du145, from data of previous studies; cited from earlier work
HT29 colon cells [5] = system: HT29 colon cells; set-up: method as in PMID 36296713, PMID 36142383; details: cited from earlier work
[6] = set-up: method as in PMID 24951889; details: water, from the literature; cited from earlier work

With `N#CC(C#N)=NNc1ccc(OC(F)(F)F)cc1` [FCCP, carbonyl cyanide 4-(trifluoromethoxy) phenylhydrazone] the “MtMP Changes” value (HT29 colon cells [1]; HT29, 24 h) was 194 ± 10 RFU, the “MtMP Changes” value (HT29 colon cells [1]; HT29, 48 h) was 143 ± 5 RFU and the “MtMP Changes” value (HT29 colon cells [1]; HT29, 72 h) was 80 ± 5 RFU.
In the case of `CC(C)(C)OO` [TBHP, tert-butyl hydroperoxide], the “ROS Production” value (HT29 colon cells [2]; HT29, 24 h) is reported as 658 ± 28 RFU, the “ROS Production” value (HT29 colon cells [2]; HT29, 48 h) is reported as 504 ± 15 RFU and the “ROS Production” value (HT29 colon cells [2]; HT29, 72 h) is reported as 497 ± 10 RFU.
With `Cc1cc2c3c4c1=CC=C[N]4[Pt+2]([OH])([OH])[N]3C=CC=2.N[C@H]1CCCC[C@@H]1N` [5MESS(IV)(OH)2] the “MtMP Changes” value (HT29 colon cells [1]; HT29, 24 h) was 301 ± 14 RFU, the “MtMP Changes” value (HT29 colon cells [1]; HT29, 48 h) was 214 ± 9 RFU and the “MtMP Changes” value (HT29 colon cells [1]; HT29, 72 h) was 198 ± 4 RFU. For the same compound, the GI50 (HT29 colon) was 60 ± 6 nM, the GI50 (U87 glioblastoma) was 900 ± 58 nM and the GI50 (MCF7 breast) was 1200 ± 390 nM. For the same compound, the GI50 (A2780 ovarian) was 240 ± 9 nM, the GI50 (H460 lung) was 60 ± 5 nM and the GI50 (A431 skin) was 360 ± 58 nM. The GI50 (Du145 prostate) was 41 ± 5 nM, the GI50 (BE2C neuroblastoma) was 1400 ± 300 nM and the GI50 (SJG2 glioblastoma) was 640 ± 70 nM. The GI50 (MIA pancreas) was 160 ± 29 nM, the GI50 [3] was 130 ± 19 nM and the GI50 [4] was 130 ± 22 nM. For the same compound, the GI50 (multiple cell lines) was 443 ± 81 nM, the “Selectivity Cytotoxicity Index (SCI)” value (MCF10A / Du145) was 3.17 and the “ROS Production” value (HT29 colon cells [5]; HT29, 24 h) was 234 ± 1 RFU. The “ROS Production” value (HT29 colon cells [5]; HT29, 48 h) was 323 ± 9 RFU and the “ROS Production” value (HT29 colon cells [5]; HT29, 72 h) was 335 ± 2 RFU.
With `N[C@H]1CCCC[C@@H]1N.[OH][Pt+2]1([OH])[N]2C=CC=c3ccc4c(c32)[N]1C=CC=4` [PHENSS(IV)(OH)2] the “MtMP Changes” value (HT29 colon cells [1]; HT29, 24 h) was 321 ± 17 RFU, the “MtMP Changes” value (HT29 colon cells [1]; HT29, 48 h) was 241 ± 10 RFU and the “MtMP Changes” value (HT29 colon cells [1]; HT29, 72 h) was 216 ± 8 RFU. For the same compound, the GI50 (HT29 colon) was 710 ± 300 nM, the GI50 (U87 glioblastoma) was 4900 ± 610 nM and the GI50 (MCF7 breast) was 16000 nM. For the same compound, the GI50 (A2780 ovarian) was 800 ± 84 nM, the GI50 (H460 lung) was 1700 ± 200 nM and the GI50 (A431 skin) was 4300 ± 530 nM. For the same compound, the GI50 (Du145 prostate) was 310 ± 92 nM, the GI50 (BE2C neuroblastoma) was 3000 ± 530 nM and the GI50 (SJG2 glioblastoma) was 1700 ± 350 nM. The GI50 (MIA pancreas) was 3400 ± 2200 nM, the GI50 [3] was 1700 ± 200 nM and the GI50 [4] was 1300 ± 350 nM. For the same compound, the GI50 (multiple cell lines) was 3320 ± 880 nM, the “Selectivity Cytotoxicity Index (SCI)” value (MCF10A / Du145) was 5.48 and the “ROS Production” value (HT29 colon cells [5]; HT29, 24 h) was 144 ± 5 RFU. The “ROS Production” value (HT29 colon cells [5]; HT29, 48 h) was 273 ± 4 RFU and the “ROS Production” value (HT29 colon cells [5]; HT29, 72 h) was 303 ± 1 RFU.
In the case of `N.N.O=C([O-])C1(C(=O)[O-])CCC1.[Pt+2]` [Carboplatin, cis-diammine(1,1-cyclobutanedicarboxylato) platinum(II)], the GI50 (HT29 colon) is given as > 50000 nM, the GI50 (U87 glioblastoma) is given as > 50000 nM and the GI50 (MCF7 breast) is given as > 50000 nM. The GI50 (A2780 ovarian) was 9200 ± 2900 nM, the GI50 (H460 lung) was 14000 nM and the GI50 (A431 skin) was 24000 nM. For the same compound, the GI50 (Du145 prostate) was 15000 nM, the GI50 (BE2C neuroblastoma) was 19000 nM and the GI50 (SJG2 glioblastoma) was 5700 ± 200 nM. The GI50 (MIA pancreas) was > 50000 nM, the GI50 [3] was > 50000 nM and the GI50 [4] was > 50000 nM. For the same compound, the GI50 (multiple cell lines) was 32200 nM, the “Selectivity Cytotoxicity Index (SCI)” value (MCF10A / Du145) was 3.33 and the Solubility [6] was 11.7 * mg/mL.
In the case of `Cc1c(C)c2c3c4c1=CC=C[N]4[Pt+2]([OH])([OH])[N]3C=CC=2.N[C@H]1CCCC[C@@H]1N` [56MESS(IV)(OH)2], the “MtMP Changes” value (HT29 colon cells [1]; HT29, 24 h) is reported as 245 ± 16 RFU, the “MtMP Changes” value (HT29 colon cells [1]; HT29, 48 h) is reported as 177 ± 11 RFU and the “MtMP Changes” value (HT29 colon cells [1]; HT29, 72 h) is reported as 125 ± 12 RFU. For the same compound, the GI50 (HT29 colon) was 36 ± 7 nM, the GI50 (U87 glioblastoma) was 190 ± 23 nM and the GI50 (MCF7 breast) was 480 ± 140 nM. The GI50 (A2780 ovarian) was 59 ± 7 nM, the GI50 (H460 lung) was 190 ± 150 nM and the GI50 (A431 skin) was 120 ± 22 nM. For the same compound, the GI50 (Du145 prostate) was 15 ± 2.6 nM, the GI50 (BE2C neuroblastoma) was 240 ± 22 nM and the GI50 (SJG2 glioblastoma) was 210 ± 45 nM. The GI50 (MIA pancreas) was 43 ± 2.5 nM, the GI50 [3] was 61 ± 7 nM and the GI50 [4] was 170 ± 120 nM. For the same compound, the GI50 (multiple cell lines) was 151 ± 50 nM, the “Selectivity Cytotoxicity Index (SCI)” value (MCF10A / Du145) was 4.07 and the “ROS Production” value (HT29 colon cells [5]; HT29, 24 h) was 259 ± 3 RFU. The “ROS Production” value (HT29 colon cells [5]; HT29, 48 h) was 356 ± 11 RFU and the “ROS Production” value (HT29 colon cells [5]; HT29, 72 h) was 438 ± 7 RFU.
In the case of `O=C1[O][Pt]2([NH][C@@H]3CCCC[C@H]3[NH]2)[O]C1=O` (relative stereo) [Oxaliplatin, trans-L-(1R,2R-diaminocyclohexane) oxalatoplatinum(II)], the GI50 (HT29 colon) is given as 900 ± 200 nM, the GI50 (U87 glioblastoma) is given as 1800 ± 200 nM and the GI50 (MCF7 breast) is given as 500 ± 100 nM. The GI50 (A2780 ovarian) was 160 ± 100 nM, the GI50 (H460 lung) was 1600 ± 100 nM and the GI50 (A431 skin) was 4100 ± 500 nM. The GI50 (Du145 prostate) was 2900 ± 400 nM, the GI50 (BE2C neuroblastoma) was 900 ± 200 nM and the GI50 (SJG2 glioblastoma) was 3000 ± 1200 nM. For the same compound, the GI50 (MIA pancreas) was 900 ± 200 nM, the GI50 [4] was 800 ± 100 nM and the GI50 (multiple cell lines) was 1460 ± 320 nM.
